Test results reported in US12059400B2, “Medical compound” (VERA SALUS RICERCA S.R.L., priority 2017, dated 2024).
pIC50: −log10 of the molar value.

Tests used:
[1] = system: normal cells (human skin fibroblasts, WS1); assay: Apoptosis, acridine orange/ethidium bromide method; assay type: cell-based; conditions: 2 hrs; Compound 2 40 μM, 5 40 μM, 4 40 μM, 3 60 μM, 1 80 μM; FIG. 18
[2] = system: human melanoma cells (A375); assay: Cell cycle progression, propidium iodide method, cytofluorimeter; assay type: cell-based; conditions: for halt of A375 tumour cells in S and/or G2 of the cell cycle: 24 hrs, at the respective anti-proliferative IC50s, FIG. 19
Protocol: (§1) Progression through the tumour cell cycle was assessed by the propidium iodide method and quantification of the cell DNA content with a cytofluorimeter. Briefly, after treatment (in duplicate) with the test compounds (24 hrs), the tumour cells were washed (with PBS), detached with trypsin-EDTA and pelleted by centrifugation (125 g for 6 min). The cells were then fixed in ethanol (70%) and stored in the freezer (−20° C.) for 1-3 days. After further washing (PBS) and treatment with RNAse (50 ug/ml), the cells were contacted (on ice in the dark; 30 min) with propidium iodide (50 μg/ml). FL2 and FL3 cytofluorimeter readings analysed approximately 50,000 cells (1 μl/second) per sample. Statistical analysis and graphical representation were performed by using t-tests and preset Excel property files.

[3] = system: human colon carcinoma cells (HCT116); assay: as above; assay type: cell-based; conditions: for halt of HCT116 tumour cells in S of the cell cycle: 24 hrs, at the respective anti-proliferative IC50s, FIG. 20
Protocol: as §1

SCC cells (A431) = assay: Cell proliferation, crystal violet method; assay type: cell-based, human; conditions: for A431 cell growth vs vehicle control: 90 μM, FIG. 2a, 2b; for pIC50: crystal violet, spectrophotometer, read-out: IC50 anti-proliferative effect, SCC (A431)
Protocol: The compound according to the invention, and in particular the synthetic quercetin derivatives described and illustrated herein were investigated in vitro by using human tumour cells and assessing their impact on the tumour proliferative capacity, with regard to the tumours described above. In particular, the following human tumour cell lines were assessed experimentally: 1) HCT116, colon adenocarcinoma cells; 2) H1299, lung adenocarcinoma cells; 3) A375, melanoma cells, and 4) A431, squamous skin cell carcinoma; 5) 786-0, renal carcinoma cells; 6) PC3, prostate carcinoma cells; 7) BT549, mammary carcinoma cells; 8) CAL27, tongue carcinoma cells (belonging to the head-and-neck carcinomas); 9) HepG2, hepatocellular carcinoma cells; 10) PANC-1, pancreas carcinoma cells; 11) T24, bladder carcinoma cells; 12) OVCAR-3, ovarian carcinoma cells. In addition, a normal human cell line, WS1 (skin fibroblasts) was also treated with the novel synthetic compounds. Cell proliferation was quantified by the crystal violet method with a spectrophotometer. In short, after acquiring serial images (0, 24 and 48 hrs) with the EVOS XL Cell Imaging System microscope (Thermo Fisher Scientific), the cells imaged at 48 hrs were fixed with paraformaldehyde (4%) and stained with Crystal Violet (1%). Then, the specific absorbance (λ=590 nm) at 48 hrs was measured with a spectrophotometer (Infinite®200 PRO, Tecan). Data analysis was carried out by using ad-hoc Excel files for graphical representation and statistical processing (t-test). Moreover, the results obtained with Crystal Violet were confirmed by using another cell proliferation assessment method based on the real time cellular analyzer XCELLigence RTCA DP (ACEA Biosciences, Inc.). This tool allows cell growth to be monitored from electrical impedance-derived quantitative values (the so-called Cell Index) measured by tiny electrodes located at the base of the culture wells. Proliferation is monitored for several days (5-7) by setting a Cell Index per minute measure on the instrument. The data are analysed by processing various parameters calculated by the dedicated software, such as the cell duplication time, the slope and the Max Cell Index. […] Cell proliferation was quantitated spectrophotometrically by the crystal violet method.

melanoma, A375 = assay: Apoptosis, acridine orange/ethidium bromide method; assay type: cell-based, human; conditions: 2 hrs; Compound 2 40 μM, 5 40 μM, 4 40 μM, 3 60 μM, 1 80 μM; FIG. 18
From the text: Tumour cell apoptosis was quantified by the acridine orange/ethidium bromide (AO/EB) method and by using a fluorescence microscope and image-J. In short, after treatment with the test compounds (2 hrs), the tumour cells were placed in contact with an AO/EB solution (in sterile H2O) and photographed with a fluorescence microscope (Leica) by using the ≥20× objective (so as to distinguish the morphology of cell nuclei). In this way, the living cells are labelled with AO and emit fluorescence in the green channel, while the necrotic cells, which have undergone the rupture of the plasma membrane, are permeable to EB and emit fluorescence in the red channel. In contrast, apoptotic cells are permeable to both AO and EB, and as a consequence of the colocalization of the two fluorescences appear yellow-orange when the two individual microscope-acquired fluorescences are superimposed by using the editing program Image J. The objective quantification of the colocalization areas (apoptotic cells) and the non-colocalization areas (living or necrotic cells) was carried out on a number of cells ≥300/condition through the use of Apoptosis Correlator (ImageJ plug-in) and shown as the percentage of living (green), necrotic (red) or apoptotic (yellow-orange) tumour cells. Data analysis was carried out by using GraphPad Prism 6 for graphical representation and statistical processing (2-way ANOVA test).

[4] = system: human colon carcinoma cells (HCT116); assay: Intracellular ROS levels, DCFH2-DA probe; assay type: cell-based; conditions: for intracellular ROS levels in HCT116 cells: 2 hrs of treatment, at the respective anti-proliferative IC50s, DCF fluorescence in A.U., FIG. 22 left
Protocol: Intracellular ROS levels were measured in tumour cells by using the probe 2,7-dichlorodihydrofluorescein diacetate (DCFH2-DA) and a fluorescence spectrophotometer. DCFH2-DA diffuses readily through the cell membrane into the cytosolic space of the cell where it is hydrolyzed by intracellular esterases into the non-permeable DCFH2 product. DCFH2 oxidation by intracellular ROS (mainly H2O2, HO·, ROO·, NO· and ONOO) results in the production of intracellular fluorescent DCF, whose concentration is directly proportional to the levels of ROS in the cell. […] All the experiments were repeated at least 3 times. Data analysis was carried out with GraphPad Prism 6 for graphical representation and statistical processing (1-way ANOVA test).

| pIC50 (SCC cells (A431)) | Substance | induction of apoptosis in normal cells WS1 [1] | halt of A375 tumour cells in S and/or G2 of the cell cycle [2] | halt of HCT116 tumour cells in S of the cell cycle [3] | A431 cell growth vs vehicle control (SCC cells (A431)) | induction of apoptosis in A375 (melanoma, A375) | effect on the A375 cell cycle in presence of ROS scavenger NAC ([2]; Compound at its anti-proliferative IC50 + N-Acetyl Cysteine 10 mM, FIG. 21 right) | effect on the HCT116 cell cycle in presence of ROS scavenger NAC ([3]; Compound at its anti-proliferative IC50 + N-Acetyl Cysteine 10 mM, FIG. 21 left) | intracellular ROS levels in HCT116 cells [4] | intracellular ROS levels in HCT116 cells after pretreatment with NAC ([4]; pretreatment with N-Acetyl-L-Cysteine 10 mM, FIG. 22 right) |
| --- | --- | --- | --- | --- | --- | --- | --- | --- | --- | --- |
| 4.51 | 2-(3,4-dihydroxyphenyl)-5,7-dihydroxy-4-oxo-4H-chromen-3-yl acetate [Compound 4] | not in normal cells | significantly halt | significantly halt | significantly inhibit | induced apoptosis |  |  |  |  |
|  | 2-(3,4-Dihydroxyphenyl)-3-ethoxy-5,7-dihydroxy-4H-chromen-4-one [Compound 1] | not in normal cells | significantly halt | significantly halt |  | induced apoptosis | partly mediated by ROS | partly mediated by ROS | significantly raise | blocked |
| 4.59 | 2-(3,4-dihydroxyphenyl)-5,7-dihydroxy-4-oxo-4H-chromen-3-yl palmitate [Compound 5] | not in normal cells | significantly halt |  | significantly inhibit | induced apoptosis |  |  |  |  |
| 4.39 | 2-(3,4-Dihydroxyphenyl)-3-hexyloxy-5,7-dihydroxy-4H-chromen-4-one [Compound 2] | not in normal cells | significantly halt |  | significantly inhibit | induced apoptosis |  |  | significantly raise |  |
|  | 2-(3,4-Dihydroxyphenyl)-3-hexadecyloxy-5,7-dihydroxy-4H-chromen-4-one [Compound 3] | not in normal cells | exception | significantly halt |  | induced apoptosis |  |  | significantly raise |  |
